Experimental data: ChEMBL document CHEMBL4715930, “Reactivation of the Guardian of the Genome P53: A Promising Strategy for Treatment of Cancer” (ACS Med Chem Lett, 2021)

Target: Tumour suppressor p53/oncoprotein Mdm2 (Homo sapiens, UniProt Q00987)
Assay: Inhibition of GST-tagged MDM2 (23 to 117 residues) (unknown origin) assessed as inhibition of MDM2/biotinylated wild type human p53 (16 to 27 residues) interaction by measuring reactivation of p53 incubated for 15 mins by AlphaScreen assay
Type: protein assay

Chain of Tumour suppressor p53/oncoprotein Mdm2 (P04637 whole entry, the tested form may be a part): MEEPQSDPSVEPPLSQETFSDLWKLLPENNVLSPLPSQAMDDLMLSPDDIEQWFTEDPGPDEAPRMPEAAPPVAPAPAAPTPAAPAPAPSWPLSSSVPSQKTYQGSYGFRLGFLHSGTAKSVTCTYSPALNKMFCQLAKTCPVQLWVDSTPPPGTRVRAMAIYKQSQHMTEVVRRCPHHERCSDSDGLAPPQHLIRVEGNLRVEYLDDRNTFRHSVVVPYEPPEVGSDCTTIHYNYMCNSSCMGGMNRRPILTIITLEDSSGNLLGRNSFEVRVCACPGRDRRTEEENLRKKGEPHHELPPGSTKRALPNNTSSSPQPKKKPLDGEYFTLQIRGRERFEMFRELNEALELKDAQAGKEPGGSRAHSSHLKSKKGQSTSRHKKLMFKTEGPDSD
Chain of Tumour suppressor p53/oncoprotein Mdm2 (Q00987 whole entry, the tested form may be a part): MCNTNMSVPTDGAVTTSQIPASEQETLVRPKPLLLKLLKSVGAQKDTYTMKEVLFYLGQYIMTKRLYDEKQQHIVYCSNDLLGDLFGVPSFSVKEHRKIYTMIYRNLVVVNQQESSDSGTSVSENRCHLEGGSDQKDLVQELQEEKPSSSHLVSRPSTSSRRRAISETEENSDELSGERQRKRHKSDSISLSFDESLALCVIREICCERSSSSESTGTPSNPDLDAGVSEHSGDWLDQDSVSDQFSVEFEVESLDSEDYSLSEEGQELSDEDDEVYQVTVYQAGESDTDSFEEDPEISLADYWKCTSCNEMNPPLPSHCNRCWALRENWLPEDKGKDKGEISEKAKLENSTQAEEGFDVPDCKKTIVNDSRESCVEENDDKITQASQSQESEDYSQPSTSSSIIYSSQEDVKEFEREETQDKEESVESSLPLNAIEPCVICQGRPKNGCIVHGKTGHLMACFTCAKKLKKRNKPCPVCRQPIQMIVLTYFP

Row | IC50 [nM] | SMILES
1 | 10 | Cc1c(C(=O)N2CCCCC2)ccn2c3c(nc12)[C@@H]1[C@H](CC3)N(CC2CC2)[C@@]2(C(=O)Nc3cc(Cl)ccc32)[C@H]1c1ccnc(Cl)c1F
2 | 79 | O=C(O)c1ccc2c(c1)nc1n2CC[C@@H]2[C@H]1[C@H](c1cccc(Cl)c1F)[C@]1(C(=O)Nc3cc(Cl)ccc31)N2CC1CC1
3 | 5 | CCOc1cccc(CN2[C@H]3Cc4c5cc(C)c(C(=O)NC)cc5nn4[C@H]3[C@H](c3cccc(Cl)c3F)[C@]23C(=O)Nc2nc(Cl)ccc23)c1
